Where two headings read alike, the source gives them in different places.
Experiments:
HCT116 cells = test: Anti-tumor cell proliferation activity of compound of formula (D-H), Cell-Titer Glo, HCT116; type: cell-based; conditions: Homo sapiens, HCT-116, 72 h
Method: (§1) Cell culture: HCT116 cells and SKBR3 cells were cultured with a McCoy's 5a medium containing 10% fetal bovine serum+1% penicillin-streptomycin at 37° C. with 5% CO2, and OVCAR3 cells were cultured with a 1640 medium containing 20% fetal bovine serum+2 μg/mL bovine insulin+1% penicillin-streptomycin at 37° C. with 5% CO2. Cells at logarithmic growth phase were available for the experiment.
(§2) Cell proliferation activity test: The Cell-Titer Glo reagent was used to test the compound for inhibitory activity on proliferation of the three cell strains HCT116, SKBR3, and OVCAR3. HCT116 cells (1500 per well), SKBR3 cells (3000 per well), and OVCAR3 cells (5000 per well) were seeded on 96-well plates and incubated at 37° C. with 5% CO2 for 24 h. After a solution of the compound to be detected was added (the compound was dissolved in DMSO so that the compound concentration was 1 mM, then the compound was diluted to […] in DMSO at 9 concentrations in a 3-fold dilution, and 10 μL of the prepared compound solution was transferred to the 96-well plate so that the final concentration was 0-300 nM), the mixture was incubated at 37° C. with 5% CO2. HCT116 cells were cultured for 3 days, and SKBR3 cells and OVCAR3 cells were cultured for 5 days. The Cell-Titer Glo reagent was added and the cell activity was measured.
(§3) A negative control group and a positive control group were respectively used as Bottom and Top. The negative control group was not added with cells, only added with the culture medium in the same volume, and other operations were consistent with those of the experimental group. The positive control group was not added with the test drug, and other operations were consistent with those of the experimental group.
(§4) Data analysis: % Inhibition was calculated, and compound IC50 was fitted.
(§5) % Inhibition=1-100%×(Signal−Bottom)/(Top−Bottom).
(§6) Signal referred to the signal value of the experimental group, Bottom referred to the average signal value of the negative control group, and Top referred to the average signal value of the positive control group.

SKBR3 cells = test: Anti-tumor cell proliferation activity of compound of formula (D-H), Cell-Titer Glo, SKBR3; type: cell-based, human
Method: as §1, §2, §3, §4, §5, §6

OVCAR3 cells = test: Anti-tumor cell proliferation activity of compound of formula (D-H), Cell-Titer Glo, OVCAR3; type: cell-based; conditions: Homo sapiens, OVCAR-3, 120 h
Method: as §1, §2, §3, §4, §5, §6

[1] = read-out: HCT116 Antiproliferative activity IC50 (nM), HCT116 cells, 3 days
[2] = read-out: OVCAR3 Antiproliferative activity IC50 (nM)
[3] = Homo sapiens, SK-BR-3, 120 h, read-out: SKBR3 Antiproliferative activity IC50 (nM), SKBR3 cells, 5 days
[4] = HCT116 cells, 3 days, read-out: HCT116 Antiproliferative activity IC50
[5] = OVCAR3 cells, 5 days, read-out: OVCAR3 Antiproliferative activity IC50

In the case of CC[C@@]1(O)C(=O)OCc2c1cc1n(c2=O)Cc2c-1nc1cc3c(cc1c2CNC(=O)[C@@H](O)C1CC1)OCO3 [Compound 14-P1, (S)-2-cyclopropyl-N—(((S)-7-ethyl-7-hydroxy-8,11-dioxo-7,8,11,13-tetrahydro-10H-[1,3]dioxolo[4,5-g]pyrano[3′,4′:6,7]indolizino[1,2-b]quinolin-14-yl)methyl)-2-hydroxyacetamide], the IC50 (HCT116 cells; [1]) is reported as under 10 nM, the IC50 (SKBR3 cells; Homo sapiens, SK-BR-3, 120 h, SKBR3 cells, 5 days, read-out: SKBR3 Antiproliferative activity IC50) is reported as 2.1 nM and the IC50 (OVCAR3 cells; [2]) is reported as 0.6 nM.
CC[C@@]1(O)C(=O)OCc2c1cc1n(c2=O)Cc2c-1nc1cc(Cl)c3c(c1c2CNC(=O)C(O)C1CC1)CCC3 (stereo partly drawn) [Compound 34, N—(((S)-4-chloro-8-ethyl-8-hydroxy-9,12-dioxo-2,3,8,9,12,14-hexahydro-1H,11H-cyclopenta[f]pyrano[3′,4′:6,7]indolizino[1,2-b]quinolin-15-yl)methyl)-2-cyclopropyl-2-hydroxyacetamide] was tested, and the IC50 (HCT116 cells; [1]) was under 10 nM and the IC50 (OVCAR3 cells; [2]) was 0.6 nM.
Compound CC[C@@]1(O)C(=O)OCc2c1cc1n(c2=O)Cc2c-1nc1cc(F)c(Cl)c(F)c1c2CNC(=O)[C@@H](C)O [Compound 25, (R)—N—(((S)-9-chloro-4-ethyl-8,10-difluoro-4-hydroxy-3,14-dioxo-3,4,12,14-tetrahydro-1H-pyrano[3′,4′:6,7]indolizino[1,2-b]quinolin-11-yl)methyl)-2-hydroxypropanamide] has an IC50 (HCT116 cells; [1]) of under 10 nM, an IC50 (SKBR3 cells; [3]) of 3.7 nM and an IC50 (OVCAR3 cells; [2]) of 2 nM.
[2H]C1([2H])Oc2cc3nc4c(c(CNC(=O)[C@@H](O)C5CC5)c3cc2O1)Cn1c-4cc2c(c1=O)COC(=O)[C@]2(O)CC [Compound 19-P1, (S)-2-cyclopropyl-N—(((S)-7-ethyl-7-hydroxy-8,11-dioxo-7,8,11,13-tetrahydro-10H-[1,3]dioxolo[14,5-g]pyrano[3′,4′:6,7]indolizino[1,2-b]quinolin-14-yl-2,2-d2)methyl)-2-hydroxyacetamide] was tested, and the IC50 (HCT116 cells; [1]) was under 10 nM and the IC50 (OVCAR3 cells; [2]) was 0.6 nM.
[2H]C1([2H])Oc2cc3nc4c(c(CNC(=O)[C@@H](O)C5CC5)c3cc2O1)Cn1c-4cc2c(c1=O)COC(=O)[C@]2(O)CC [Compound 19-P2, 2-cyclopropyl-N—(((S)-7-ethyl-7-hydroxy-8,11-dioxo-7,8,11,13-tetrahydro-10H-[1,3]dioxolo[4,5-g]pyrano[3′,4′:6,7]indolizino[1,2-b]quinolin-14-yl-2,2-d2)methyl)-2-hydroxyacetamide] showed an IC50 (HCT116 cells; [4]) of under 10 nM and an IC50 (OVCAR3 cells; [5]) of 1 nM.
For CC[C@@]1(O)C(=O)OCc2c1cc1n(c2=O)Cc2c-1nc1cc(F)c(Cl)c(F)c1c2CNC(=O)C(O)C1CC1 (stereo partly drawn) [Compound 23, N—(((S)-9-chloro-4-ethyl-8,10-difluoro-4-hydroxy-3,14-dioxo-3,4,12,14-tetrahydro-1H-pyrano[3′,4′:6,7]indolizino[1,2-b]quinolin-11-yl)methyl)-2-cyclopropyl-2-hydroxyacetamide], the IC50 (HCT116 cells; [1]) was under 10 nM, the IC50 (SKBR3 cells; [3]) was 5.3 nM and the IC50 (OVCAR3 cells; [2]) was 3.9 nM.
Compound CC[C@@]1(O)C(=O)OCc2c1cc1n(c2=O)Cc2c-1nc1cc3c(c(F)c1c2CNC(=O)C(O)C1CC1)OCO3 (stereo partly drawn) [Compound 35, 2-cyclopropyl-N-(((S)-7-ethyl-15-fluoro-7-hydroxy-8,11-dioxo-7,8,11,13-tetrahydro-10H-[1,3]dioxolo[4,5-g]pyrano[3′,4′:6,7]indolizino[1,2-b]quinolin-14-yl)methyl)-2-hydroxyacetamide] has an IC50 (HCT116 cells; [1]) of under 10 nM, an IC50 (SKBR3 cells; [3]) of 3.5 nM and an IC50 (OVCAR3 cells; [2]) of 1.2 nM.
Compound CC[C@@]1(O)C(=O)OCc2c1cc1n(c2=O)Cc2c-1nc1cc(F)c(Cl)c(F)c1c2CNC(=O)[C@H](C)O [Compound 26, (S)-N-(((S)-9-chloro-4-ethyl-8,10-difluoro-4-hydroxy-3,14-dioxo-3,4,12,14-tetrahydro-1H-pyrano[3′,4′:6,7]indolizino[1,2-b]quinolin-11-yl)methyl)-2-hydroxypropanamide] has an IC50 (HCT116 cells; [1]) of under 10 nM, an IC50 (SKBR3 cells; [3]) of 4.2 nM and an IC50 (OVCAR3 cells; [2]) of 1.6 nM.
CC[C@@]1(O)C(=O)OCc2c1cc1n(c2=O)Cc2c-1nc1cc(F)c(Cl)c(F)c1c2CNC(=O)C(C)(C)O [Compound 22, (S)-N-((9-chloro-4-ethyl-8,10-difluoro-4-hydroxy-3,14-dioxo-3,4,12,14-tetrahydro-1H-pyrano[3′,4′:6,7]indolizino[1,2-b]quinolin-11-yl)methyl)-2-hydroxy-2-methylpropanamide] gave an IC50 (HCT116 cells; [1]) of under 10 nM, an IC50 (SKBR3 cells; [3]) of 3.5 nM and an IC50 (OVCAR3 cells; [2]) of 1.4 nM.
CC[C@@]1(O)C(=O)OCc2c1cc1n(c2=O)Cc2c-1nc1cc(Cl)c(C)cc1c2CNC(=O)CO [Compound 6, (S)-N-((8-chloro-4-ethyl-4-hydroxy-9-methyl-3,14-dioxo-3,4,12,14-tetrahydro-1H-pyrano[3′,4′:6,7]indolizino[1,2-b]quinolin-11-yl)methyl)-2-hydroxyacetamide] gave an IC50 (SKBR3 cells; [3]) of 4.8 nM and an IC50 (OVCAR3 cells; [2]) of 2.1 nM.
CC[C@@]1(O)C(=O)OCc2c1cc1n(c2=O)Cc2c-1nc1cc3c(c(Cl)c1c2CNC(=O)C(O)C1CC1)OCO3 (stereo partly drawn) [Compound 30, N—(((S)-15-chloro-7-ethyl-7-hydroxy-8,11-dioxo-7,8,11,13-tetrahydro-10H-[1,3]dioxolo[4,5-g]pyrano[3′,4′:6,7]indolizino[1,2-b]quinolin-14-yl)methyl)-2-cyclopropyl-2-hydroxyacetamide] showed an IC50 (HCT116 cells; [1]) of under 10 nM and an IC50 (OVCAR3 cells; [2]) of 0.4 nM.
CC[C@@]1(O)C(=O)OCc2c1cc1n(c2=O)Cc2c-1nc1cc3c(cc1c2CNC(=O)C(O)C1CC1)OCO3 (stereo partly drawn) [Compound 14, 2-cyclopropyl-N—(((S)-7-ethyl-7-hydroxy-8,11-dioxo-7,8,11,13-tetrahydro-10H-[1,3]dioxolo[4,5-g]pyrano[3′,4′:6,7]indolizino[1,2-b]quinolin-14-yl)methyl)-2-hydroxyacetamide] showed an IC50 (HCT116 cells; [1]) of under 10 nM, an IC50 (SKBR3 cells; [3]) of 2.2 nM and an IC50 (OVCAR3 cells; [2]) of 0.9 nM.
For CC[C@@]1(O)C(=O)OCc2c1cc1n(c2=O)Cc2c-1nc1cc(F)c(Cl)c(F)c1c2CNC(=O)CO [Compound 21, (S)-N-((9-chloro-4-ethyl-8,10-difluoro-4-hydroxy-3,14-dioxo-3,4,12,14-tetrahydro-1H-pyrano[3′,4′:6,7]indolizino[1,2-b]quinolin-11-yl)methyl)-2-hydroxyacetamide], the IC50 (HCT116 cells; [1]) was under 10 nM, the IC50 (SKBR3 cells; [3]) was 4 nM and the IC50 (OVCAR3 cells; [2]) was 1.7 nM.
CC[C@@]1(O)C(=O)OCc2c1cc1n(c2=O)Cc2c-1nc1cc(Cl)c3c(c1c2CNC(=O)CO)CCC3 [Compound 33, (S)-N-((4-chloro-8-ethyl-8-hydroxy-9,12-dioxo-2,3,8,9,12,14-hexahydro-1H,11H-cyclopenta[f]pyrano[3′,4′:6,7]indolizino[1,2-b]quinolin-15-yl)methyl)-2-hydroxyacetamide] was tested, and the IC50 (HCT116 cells; [1]) was under 10 nM and the IC50 (OVCAR3 cells; [2]) was 0.8 nM.
For CC[C@@]1(O)C(=O)OCc2c1cc1n(c2=O)Cc2c-1nc1cc3c(c(Cl)c1c2CNC(=O)CO)OCO3 [Compound 31, (S)-N-((15-chloro-7-ethyl-7-hydroxy-8,11-dioxo-7,8,11,13-tetrahydro-10H-[1,3]dioxolo[4,5-g]pyrano[3′,4′:6,7]indolizino[1,2-b]quinolin-14-yl)methyl)-2-hydroxyacetamide], the IC50 (HCT116 cells; [1]) was under 10 nM and the IC50 (OVCAR3 cells; [2]) was 0.2 nM.
In the case of CC[C@@]1(O)C(=O)OCc2c1cc1n(c2=O)Cc2c-1nc1cc3c(cc1c2CNC(=O)C(O)C1CC1)OCO3 (stereo partly drawn) [Compound 14-P2, 2-cyclopropyl-N—(((S)-7-ethyl-7-hydroxy-8,11-dioxo-7,8,11,13-tetrahydro-10H-[1,3]dioxolo[4,5-g]pyrano[3′,4′:6,7]indolizino[1,2-b]quinolin-14-yl)methyl)-2-hydroxyacetamide], the IC50 (HCT116 cells; [4]) is reported as 10 to 100 nM, the IC50 (SKBR3 cells; read-out: SKBR3 Antiproliferative activity IC50, SKBR3 cells, 5 days) is reported as 3.5 nM and the IC50 (OVCAR3 cells; [5]) is reported as 1 nM.
CC[C@@]1(O)C(=O)OCc2c1cc1n(c2=O)Cc2c-1nc1ccc3c(c1c2CNC(=O)C(O)C1CC1)CCC3 (stereo partly drawn) [Compound 13, 2-cyclopropyl-N—(((S)-8-ethyl-8-hydroxy-9,12-dioxo-2,3,8,9,12,14-hexahydro-1H,11H-cyclopenta[f]pyrano[3′,4′:6,7]indolizino[1,2-b]quinolin-15-yl)methyl)-2-hydroxyacetamide] was tested, and the IC50 (HCT116 cells; [1]) was under 10 nM and the IC50 (OVCAR3 cells; [2]) was 0.7 nM.
